Experimental findings from patent US6642379B1, “Benzamide derivatives, insecticides for agricultural and horticultural use and usage thereof” (Nihon Nohyaku Co., Ltd., priority 1999, dated 2003) are described below.

The mortality is the percentage killed.

The experiment concerns Diamond Back Moth (Plutella xylostella). Put plainly: Insecticidal effect on diamond back moth (Test Example 1). It is filed as in vivo. Particulars: 144 h, Chinese cabbage seedling with eggs immersed about 30 seconds, 25° C., hatched insects counted six days after immersion, read-out: insecticidal effect (mortality) activity ranking. The text has this:
Insecticidal Effect on Diamond Back Moth (Plutella xylostella)
Adult diamond back moths were released and allowed to oviposit on a Chinese cabbage seedling. Two days after the release, the seedling having the eggs deposited thereon was immersed for about 30 seconds in a liquid chemical prepared by diluting a preparation containing each compound listed in Tables 1 to 4 as an active ingredient to adjust the concentration to 500 ppm. After air-dryness, it was allowed to stand in a room thermostatted at 25° C. Six days after the immersion, the hatched insects were counted. The mortality was calculated according to the following equation and the insecticidal effect was judged according to the criterion shown below. The test was carried out with triplicate groups of 10 insects. [formula]

For the compound `Cc1cc(OC(F)(F)F)ccc1NC(=O)c1cccc(Cl)c1-c1coc(C(C)(C)C)n1` [4-1, 2-(2-t-butyloxazol-4-yl)-3-chloro-2′-methyl-4′-trifluoromethoxybenzanilide], the mortality at 500 ppm was 100%.
